Measured values published in patent publication US8044069B2, “Compounds as calcium channel blockers” (Abbott Laboratories, priority 2008, dated 2011).

These compounds were tested against human Cav2.2 (Homo sapiens, UniProt Q00975) (assay: Assessment of calcium channel activity using FLIPR (Ca2+ influx in IMR32 cells)). Details: IMR32 cells endogenously expressing human Cav2.2; 60 minute pre-incubation; 2 μM nifedipine; depolarized with 80 mM KCl, 5 mM CaCl2.
Sequence of human Cav2.2 (Q00975 whole entry): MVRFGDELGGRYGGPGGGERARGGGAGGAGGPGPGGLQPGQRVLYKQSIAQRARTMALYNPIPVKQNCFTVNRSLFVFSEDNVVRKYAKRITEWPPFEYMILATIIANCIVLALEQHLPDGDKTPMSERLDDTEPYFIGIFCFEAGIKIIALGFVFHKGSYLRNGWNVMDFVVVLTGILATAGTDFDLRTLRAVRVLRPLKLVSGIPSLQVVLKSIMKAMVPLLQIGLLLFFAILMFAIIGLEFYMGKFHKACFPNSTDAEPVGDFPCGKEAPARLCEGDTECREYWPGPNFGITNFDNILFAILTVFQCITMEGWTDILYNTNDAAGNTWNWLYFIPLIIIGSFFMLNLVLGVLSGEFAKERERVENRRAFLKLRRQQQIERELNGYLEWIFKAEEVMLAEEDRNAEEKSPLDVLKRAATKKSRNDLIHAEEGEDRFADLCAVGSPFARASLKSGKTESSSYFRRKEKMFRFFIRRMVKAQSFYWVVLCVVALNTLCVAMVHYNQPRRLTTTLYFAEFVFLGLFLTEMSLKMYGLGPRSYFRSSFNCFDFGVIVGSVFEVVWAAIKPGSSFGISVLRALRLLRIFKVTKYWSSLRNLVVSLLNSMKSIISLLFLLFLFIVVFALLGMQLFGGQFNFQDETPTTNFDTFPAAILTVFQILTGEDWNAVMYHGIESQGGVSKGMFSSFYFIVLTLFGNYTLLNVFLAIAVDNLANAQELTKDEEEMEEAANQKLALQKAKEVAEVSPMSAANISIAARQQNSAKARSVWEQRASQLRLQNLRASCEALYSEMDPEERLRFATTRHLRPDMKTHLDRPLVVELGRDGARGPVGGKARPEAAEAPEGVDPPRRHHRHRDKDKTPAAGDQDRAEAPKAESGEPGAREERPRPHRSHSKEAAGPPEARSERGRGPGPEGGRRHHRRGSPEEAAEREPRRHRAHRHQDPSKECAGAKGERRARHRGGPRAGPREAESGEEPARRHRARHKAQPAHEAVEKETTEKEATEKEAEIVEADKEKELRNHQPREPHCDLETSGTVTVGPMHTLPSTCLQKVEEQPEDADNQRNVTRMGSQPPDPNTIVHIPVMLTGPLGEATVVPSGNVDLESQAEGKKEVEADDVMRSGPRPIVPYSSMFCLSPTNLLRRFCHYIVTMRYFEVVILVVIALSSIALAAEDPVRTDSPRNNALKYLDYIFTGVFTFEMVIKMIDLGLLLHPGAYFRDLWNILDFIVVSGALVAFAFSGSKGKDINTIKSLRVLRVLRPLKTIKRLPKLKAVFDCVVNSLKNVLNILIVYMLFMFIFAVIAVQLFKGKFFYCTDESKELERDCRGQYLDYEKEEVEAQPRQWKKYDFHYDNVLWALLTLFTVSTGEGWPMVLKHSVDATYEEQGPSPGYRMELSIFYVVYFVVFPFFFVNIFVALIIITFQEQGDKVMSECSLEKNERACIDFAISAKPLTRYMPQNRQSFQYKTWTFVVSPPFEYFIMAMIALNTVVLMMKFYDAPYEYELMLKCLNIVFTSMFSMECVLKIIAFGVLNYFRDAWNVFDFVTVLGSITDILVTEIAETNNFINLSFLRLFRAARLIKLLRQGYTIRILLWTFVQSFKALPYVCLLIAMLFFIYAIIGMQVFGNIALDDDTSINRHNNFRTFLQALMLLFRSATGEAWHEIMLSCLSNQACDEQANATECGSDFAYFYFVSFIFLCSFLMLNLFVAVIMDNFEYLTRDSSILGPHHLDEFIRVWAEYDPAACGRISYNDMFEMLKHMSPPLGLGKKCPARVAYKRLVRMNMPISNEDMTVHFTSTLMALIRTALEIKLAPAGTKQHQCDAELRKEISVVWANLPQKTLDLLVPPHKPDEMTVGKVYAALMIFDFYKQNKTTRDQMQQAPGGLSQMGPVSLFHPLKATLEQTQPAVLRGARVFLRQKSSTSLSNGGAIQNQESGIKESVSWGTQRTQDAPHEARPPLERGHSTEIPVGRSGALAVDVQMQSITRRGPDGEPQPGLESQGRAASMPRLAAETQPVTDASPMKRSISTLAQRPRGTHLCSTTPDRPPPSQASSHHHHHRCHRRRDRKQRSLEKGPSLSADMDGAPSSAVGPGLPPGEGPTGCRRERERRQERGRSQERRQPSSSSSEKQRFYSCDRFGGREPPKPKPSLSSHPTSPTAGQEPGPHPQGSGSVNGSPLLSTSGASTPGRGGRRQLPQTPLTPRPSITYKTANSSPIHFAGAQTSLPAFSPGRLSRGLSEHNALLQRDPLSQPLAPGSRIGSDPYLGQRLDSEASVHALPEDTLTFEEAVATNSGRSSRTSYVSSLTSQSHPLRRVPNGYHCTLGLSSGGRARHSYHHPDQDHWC
Sequence of human Cav2.2 (P54289 25-951 partner limits assumed): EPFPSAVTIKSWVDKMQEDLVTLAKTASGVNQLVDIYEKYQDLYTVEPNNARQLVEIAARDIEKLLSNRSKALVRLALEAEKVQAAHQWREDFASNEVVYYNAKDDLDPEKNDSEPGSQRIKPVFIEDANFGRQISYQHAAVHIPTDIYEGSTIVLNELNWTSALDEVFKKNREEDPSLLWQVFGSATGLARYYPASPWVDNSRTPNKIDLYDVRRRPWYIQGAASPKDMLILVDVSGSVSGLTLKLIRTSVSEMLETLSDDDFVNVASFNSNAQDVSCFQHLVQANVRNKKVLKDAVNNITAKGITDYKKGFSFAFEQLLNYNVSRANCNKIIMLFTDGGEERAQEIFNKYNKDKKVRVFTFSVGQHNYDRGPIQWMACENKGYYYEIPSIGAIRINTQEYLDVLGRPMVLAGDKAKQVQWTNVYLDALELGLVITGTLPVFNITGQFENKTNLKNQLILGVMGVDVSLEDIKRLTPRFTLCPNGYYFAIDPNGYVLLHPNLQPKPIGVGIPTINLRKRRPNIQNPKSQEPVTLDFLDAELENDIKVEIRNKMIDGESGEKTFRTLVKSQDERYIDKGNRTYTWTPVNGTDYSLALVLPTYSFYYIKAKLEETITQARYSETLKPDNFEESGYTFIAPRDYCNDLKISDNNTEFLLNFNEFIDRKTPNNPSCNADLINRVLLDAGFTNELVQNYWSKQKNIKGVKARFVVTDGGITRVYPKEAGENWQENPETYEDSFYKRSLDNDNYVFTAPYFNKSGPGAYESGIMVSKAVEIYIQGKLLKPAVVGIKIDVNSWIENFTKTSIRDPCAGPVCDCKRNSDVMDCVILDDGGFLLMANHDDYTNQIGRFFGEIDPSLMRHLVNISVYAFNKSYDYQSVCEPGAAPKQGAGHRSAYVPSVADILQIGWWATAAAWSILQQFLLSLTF
Sequence of human Cav2.2 (P54289 952-1103 partner limits assumed): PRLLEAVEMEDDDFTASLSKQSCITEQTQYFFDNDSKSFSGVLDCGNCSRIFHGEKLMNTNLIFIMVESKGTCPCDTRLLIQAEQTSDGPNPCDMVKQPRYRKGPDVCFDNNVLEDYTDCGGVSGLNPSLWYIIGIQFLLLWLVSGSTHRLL
Sequence of human Cav2.2 (P54284 whole entry partner): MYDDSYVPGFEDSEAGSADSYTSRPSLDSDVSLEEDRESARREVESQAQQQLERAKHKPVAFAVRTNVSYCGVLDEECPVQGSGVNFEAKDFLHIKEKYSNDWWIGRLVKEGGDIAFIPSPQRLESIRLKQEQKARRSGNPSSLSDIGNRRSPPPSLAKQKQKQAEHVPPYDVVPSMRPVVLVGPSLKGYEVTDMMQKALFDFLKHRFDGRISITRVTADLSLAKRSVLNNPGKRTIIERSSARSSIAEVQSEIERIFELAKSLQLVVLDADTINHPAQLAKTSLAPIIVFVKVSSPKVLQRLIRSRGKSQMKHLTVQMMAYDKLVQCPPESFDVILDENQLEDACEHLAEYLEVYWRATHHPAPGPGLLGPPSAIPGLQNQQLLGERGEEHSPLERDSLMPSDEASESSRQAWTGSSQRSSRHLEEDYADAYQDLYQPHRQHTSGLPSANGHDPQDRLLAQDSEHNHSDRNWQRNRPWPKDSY
Assay type: cell-based
In short: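 FLIPR measured Ca2+ influx triggered by 80 mM KCl depolarization together with a step to 5 mM external CaCl2. Percent inhibition relative to uninhibited activity was fitted sigmoidally for IC50.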
Work on COc1ccc(C2(c3ccc(OC)cc3)CCCN(CCN(C)C3Cc4ccccc4C3)C2=O)cc1 [Example 113, 1-{2-[2,3-dihydro-1H-inden-2-yl(methyl)amino]ethyl}-3,3-bis(4-methoxyphenyl)piperidin-2-one] yielded an IC50 of 3190 nM.
For CN(CCCN1CCC(c2ccc(F)cc2)(c2ccc(F)cc2)C1=O)C1Cc2ccccc2C1 [Example 114, 1-{3-[2,3-dihydro-1H-inden-2-yl(methyl)amino]propyl}-3,3-bis(4-fluorophenyl)pyrrolidin-2-one], the IC50 was 1530 nM.
Work on COc1ccc(C2(c3ccc(OC)cc3)CCCN(CCN(C)CCCOc3cc(OC)cc(OC)c3)C2=O)cc1 [Example 115, 1-{2-[[3-(3,5-dimethoxyphenoxy)propyl](methyl)amino]ethyl}-3,3-bis(4-methoxyphenyl)piperidin-2-one] yielded an IC50 of 3120 nM.
COc1ccc(C2(c3ccc(OC)cc3)CCCN(CCCN(C)CCCOc3cc(OC)cc(OC)c3)C2=O)cc1 [Example 116, 1-{3-[[3-(3,5-dimethoxyphenoxy)propyl](methyl)amino]propyl}-3,3-bis(4-methoxyphenyl)piperidin-2-one] gave an IC50 of 2010 nM.
For CN(CCCN1CCCC(c2ccccc2)(c2ccccc2)C1=O)CCc1ccccc1 [Example 117, 1-{3-[methyl(2-phenylethyl)amino]propyl}-3,3-diphenylpiperidin-2-one], the IC50 was 3460 nM.
Work on COc1ccc(CCN(C)CCN2CCCC(c3ccccc3)(c3ccccc3)C2=O)cc1OC [Example 118, 1-{2-[[2-(3,4-dimethoxyphenyl)ethyl](methyl)amino]ethyl}-3,3-diphenylpiperidin-2-one] yielded an IC50 of 2460 nM.
Work on COc1ccc(C2(c3ccc(OC)cc3)CCCN(CCCN(C)CCc3cc(OC)cc(OC)c3)C2=O)cc1 [Example 119, 1-{3-[[2-(3,5-dimethoxyphenyl)ethyl](methyl)amino]propyl}-3,3-bis(4-methoxyphenyl)piperidin-2-one] yielded an IC50 of 2680 nM.
For COc1cccc(CCN(C)CCN2CCCC(c3ccc(F)cc3)(c3ccc(F)cc3)C2=O)c1 [Example 120, 3,3-bis(4-fluorophenyl)-1-{2-[[2-(3-methoxyphenyl)ethyl](methyl)amino]ethyl}piperidin-2-one], the IC50 was 1670 nM.
COc1cccc(CCN(C)CCCN2CCCC(c3ccc(F)cc3)(c3ccc(F)cc3)C2=O)c1 [Example 121, 3,3-bis(4-fluorophenyl)-1-{3-[[2-(3-methoxyphenyl)ethyl](methyl)amino]propyl}piperidin-2-one] gave an IC50 of 1630 nM.
CN(CCc1ccccc1)CCN1CCCC(c2ccc(F)cc2)(c2ccc(F)cc2)C1=O [Example 122, 3,3-bis(4-fluorophenyl)-1-{2-[methyl(2-phenylethyl)amino]ethyl}piperidin-2-one] was tested, and the IC50 was 2350 nM.
CN(CCCN1CCCC(c2ccc(F)cc2)(c2ccc(F)cc2)C1=O)CCc1ccccc1 [Example 123, 3,3-bis(4-fluorophenyl)-1-{3-[methyl(2-phenylethyl)amino]propyl}piperidin-2-one] was tested, and the IC50 was 1450 nM.
Work on COc1ccc(C2(c3ccc(OC)cc3)CCCN(CCN(C)CCc3cccc(OC)c3)C2=O)cc1 [Example 124, 3,3-bis(4-methoxyphenyl)-1-{2-[[2-(3-methoxyphenyl)ethyl](methyl)amino]ethyl}piperidin-2-one] yielded an IC50 of 1900 nM.
Work on COc1ccc(C2(c3ccc(OC)cc3)CCCN(CCCN(C)CCc3cccc(OC)c3)C2=O)cc1 [Example 125, 3,3-bis(4-methoxyphenyl)-1-{3-[[2-(3-methoxyphenyl)ethyl](methyl)amino]propyl}piperidin-2-one] yielded an IC50 of 1680 nM.
For COc1ccc(C2(c3ccc(OC)cc3)CCCN(CCN(C)CCc3ccc(OC)cc3OC)C2=O)cc1 [Example 126, 1-{2-[[2-(2,4-dimethoxyphenyl)ethyl](methyl)amino]ethyl}-3,3-bis(4-methoxyphenyl)piperidin-2-one], the IC50 was 1490 nM.
Work on COc1ccc(C2(c3ccc(OC)cc3)CCCN(CCCN(C)Cc3cc(OC)cc(OC)c3)C2=O)cc1 [Example 127, 1-{3-[(3,5-dimethoxybenzyl)(methyl)amino]propyl}-3,3-bis(4-methoxyphenyl)piperidin-2-one] yielded an IC50 of 1530 nM.
With COc1cccc(CCN(C)CCCN2CCCC(c3cccc(OC)c3)(C(C)C)C2=O)c1 (stereo not shown) [Example 128, 3-isopropyl-3-(3-methoxyphenyl)-1-{3-[[2-(3-methoxyphenyl)ethyl](methyl)amino]propyl}piperidin-2-one] the IC50 was 1120 nM.
COc1cccc(C2(C(C)C)CCCN(CCCN(C)CCc3ccc(F)cc3)C2=O)c1 (stereo not shown) [Example 129, 1-{3-[[2-(4-fluorophenyl)ethyl](methyl)amino]propyl}-3-isopropyl-3-(3-methoxyphenyl)piperidin-2-one] showed an IC50 of 1140 nM.
COc1ccc(CCN(C)CCN2CCCC(c3cccc(OC)c3)(C(C)C)C2=O)cc1 (stereo not shown) [Example 130, 3-isopropyl-3-(3-methoxyphenyl)-1-{2-[[2-(4-methoxyphenyl)ethyl](methyl)amino]ethyl}piperidin-2-one] was tested, and the IC50 was 1130 nM.
COc1ccc(C2(c3ccc(OC)cc3)CCCN(CCCN3CCN(Cc4cc(OC)cc(OC)c4)CC3)C2=O)cc1 [Example 131, 1-{3-[4-(3,5-dimethoxybenzyl)piperazin-1-yl]propyl}-3,3-bis(4-methoxyphenyl)piperidin-2-one] showed an IC50 of 2300 nM.
COc1ccc(C2(c3ccc(OC)cc3)CCCN(CCN3CCN(Cc4cc(OC)cc(OC)c4)CC3)C2=O)cc1 [Example 132, 1-{2-[4-(3,5-dimethoxybenzyl)piperazin-1-yl]ethyl}-3,3-bis(4-methoxyphenyl)piperidin-2-one] gave an IC50 of 2300 nM.
For COc1cc(CN2CCN(CCCN3CCCC(c4cccc(OC)c4)(C(C)C)C3=O)CC2)cc(OC)c1 (stereo not shown) [Example 133, 1-{3-[4-(3,5-dimethoxybenzyl)piperazin-1-yl]propyl}-3-isopropyl-3-(3-methoxyphenyl)piperidin-2-one], the IC50 was 670 nM.
O=C1N(CCN2CCN(c3ncccn3)CC2)CCCC1(c1ccccc1)c1ccccc1 [Example 134, 3,3-diphenyl-1-[2-(4-pyrimidin-2-ylpiperazin-1-yl)ethyl]piperidin-2-one] gave an IC50 of 6480 nM.
Compound O=C1N(CCCN2CCN(c3ncccn3)CC2)CCCC1(c1ccc(F)cc1)c1ccc(F)cc1 [Example 135, 3,3-bis(4-fluorophenyl)-1-[3-(4-pyrimidin-2-ylpiperazin-1-yl)propyl]piperidin-2-one] has an IC50 of 3010 nM.
For O=C1N(CCN2CCN(c3ncccn3)CC2)CCCC1(c1ccc(F)cc1)c1ccc(F)cc1 [Example 136, 3,3-bis(4-fluorophenyl)-1-[2-(4-pyrimidin-2-ylpiperazin-1-yl)ethyl]piperidin-2-one], the IC50 was 3320 nM.
Work on COc1ccccc1N1CCN(CCN2CCCC(c3ccc(F)cc3)(c3ccc(F)cc3)C2=O)CC1 [Example 137, 3,3-bis(4-fluorophenyl)-1-{2-[4-(2-methoxyphenyl)piperazin-1-yl]ethyl}piperidin-2-one] yielded an IC50 of 1100 nM.
COc1ccccc1N1CCN(CCCN2CCCC(c3ccc(F)cc3)(c3ccc(F)cc3)C2=O)CC1 [Example 138, 3,3-bis(4-fluorophenyl)-1-{3-[4-(2-methoxyphenyl)piperazin-1-yl]propyl}piperidin-2-one] was tested, and the IC50 was 1420 nM.
For O=C1N(CCN2CCN(c3cccc(C(F)(F)F)c3)CC2)CCCC1(c1ccc(F)cc1)c1ccc(F)cc1 [Example 139, 3,3-bis(4-fluorophenyl)-1-(2-{4-[3-(trifluoromethyl)phenyl]piperazin-1-yl}ethyl)piperidin-2-one], the IC50 was 4770 nM.
O=C1N(CCCN2CCN(c3cccc(C(F)(F)F)c3)CC2)CCCC1(c1ccccc1)c1ccccc1 [Example 140, 3,3-diphenyl-1-(3-{4-[3-(trifluoromethyl)phenyl]piperazin-1-yl}propyl)piperidin-2-one] gave an IC50 of 1250 nM.
Work on O=C1N(CCN2CCN(c3cccc(C(F)(F)F)c3)CC2)CCCC1(c1ccccc1)c1ccccc1 [Example 141, 3,3-diphenyl-1-(2-{4-[3-(trifluoromethyl)phenyl]piperazin-1-yl}ethyl)piperidin-2-one] yielded an IC50 of 1560 nM.
O=C1N(CCCN2CCN(c3cccc(C(F)(F)F)c3)CC2)CCCC1(c1ccc(F)cc1)c1ccc(F)cc1 [Example 142, 3,3-bis(4-fluorophenyl)-1-(3-{4-[3-(trifluoromethyl)phenyl]piperazin-1-yl}propyl)piperidin-2-one] showed an IC50 of 1230 nM.
COc1ccc(CCN(C)C(=O)CN2CCCC(c3ccccc3)(c3ccccc3)C2=O)cc1OC [Example 143, N-[2-(3,4-dimethoxyphenyl)ethyl]-N-methyl-2-(2-oxo-3,3-diphenylpiperidin-1-yl)acetamide] gave an IC50 of 11600 nM.
Compound O=C1N(S(=O)(=O)c2cccc(C(F)(F)F)c2)CCC1(c1ccccc1)c1ccccc1 [Example 144, 3,3-diphenyl-1-{[3-(trifluoromethyl)phenyl]sulfonyl}pyrrolidin-2-one] has an IC50 of 5480 nM.
Work on O=C1N(S(=O)(=O)c2cccc(C(F)(F)F)c2)CCC1(c1ccc(F)cc1)c1ccc(F)cc1 [Example 145, 3,3-bis(4-fluorophenyl)-1-{[3-(trifluoromethyl)phenyl]sulfonyl}pyrrolidin-2-one] yielded an IC50 of 9640 nM.
O=C1N(S(=O)(=O)c2cccc(C(F)(F)F)c2)CCCC1(c1ccccc1)c1ccccc1 [Example 146, 3,3-diphenyl-1-{[3-(trifluoromethyl)phenyl]sulfonyl}piperidin-2-one] gave an IC50 of 6780 nM.
For C[C@@H]1CN(C(=O)c2cccc(S(=O)(=O)N3CCC(c4ccccc4)(c4ccccc4)C3=O)c2)C[C@H](C)O1 [Example 147, 1-[(3-{[cis-2,6-dimethylmorpholin-4-yl]carbonyl}phenyl)sulfonyl]-3,3-diphenylpyrrolidin-2-one], the IC50 was 1840 nM.
For O=C1N(S(=O)(=O)c2ccccc2C(F)(F)F)CCC1(c1ccccc1)c1ccccc1 [Example 148, 3,3-diphenyl-1-{[2-(trifluoromethyl)phenyl]sulfonyl}pyrrolidin-2-one], the IC50 was 6880 nM.
O=C1N(S(=O)(=O)c2ccc(C(F)(F)F)cc2)CCC1(c1ccccc1)c1ccccc1 [Example 149, 3,3-diphenyl-1-{[4-(trifluoromethyl)phenyl]sulfonyl}pyrrolidin-2-one] was tested, and the IC50 was 8130 nM.
